Reference: ChEMBL document CHEMBL1201862, “PubChem BioAssay data set” (2004)
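Assay format: 96-well plates, 48-hour exposure. GI50 is the concentration that inhibits growth by half.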 Activity calls are given as the source filed them. Rule as the data show it: active = GI50 up to about 1.1 µM and inactive = higher.

Experiments:
Test in all cases: growth of human tumour cells (NCI), 48 h
NCI-H460 = test system: NCI-H460
DU-145 = test system: DU-145
MOLT-4 = test system: MOLT-4
HCT-116 = test system: HCT-116
SR = test system: SR
HOP-62 = test system: HOP-62
OVCAR-3 = test system: OVCAR-3
M14 = test system: M14
786-0 = test system: 786-0
COLO 205 = test system: COLO 205
SN12C = test system: SN12C
HCT-15 = test system: HCT-15
IGROV-1 = test system: IGROV-1
SW-620 = test system: SW-620
Hs-578T = test system: Hs-578T
MCF7 = test system: MCF7
SF-295 = test system: SF-295
EKVX = test system: EKVX
HOP-92 = test system: HOP-92

SMILES | GI50 (NCI-H460) | GI50 (DU-145) | GI50 (MOLT-4) | GI50 (HCT-116) | GI50 (SR) | GI50 (HOP-62) | GI50 (OVCAR-3) | GI50 (M14) | GI50 (786-0) | GI50 (COLO 205) | GI50 (SN12C) | GI50 (HCT-15) [µM] | GI50 (IGROV-1) | GI50 (SW-620) | GI50 (Hs-578T) | GI50 (MCF7) | GI50 (SF-295) | GI50 (EKVX) | GI50 (HOP-92)
N#C[C@@]12CCCC(=O)[C@@H]1[C@H]1CCC[C@H]12 | 16.6 µM (inactive) | 14.9 µM (inactive) | 21.2 µM (inactive) | 15.5 µM (inactive) | 26.1 µM (inactive) | 15.2 µM (inactive) | 10.3 µM (inactive) | 12.9 µM (inactive) | 14.7 µM (inactive) | 20 µM (inactive) | 16.4 µM (inactive) | 16.3 | 16.5 µM (inactive) | 20.6 µM (inactive) | 31.3 µM (inactive) | 16.4 µM (inactive) | 24.7 µM (inactive) | 13.2 µM (inactive) | 11.5 µM (inactive)
CC1OC(OC2C(CO)OC(O[C@H]3CC[C@@]4(C)C(=CC[C@H]5[C@@H]6C[C@@H]7O[C@](O)(CC[C@H](C)COC8OC(CO)C(O)C(O)C8O)[C@@H](C)[C@@H]7[C@@]6(C)CC[C@@H]54)C3)C(OC3OC(C)C(O)C(O)C3O)C2O)C(O)C(O)C1O (some centres undefined) | 4.81 µM (inactive) | 2.35 µM (inactive) | 2.29 µM (inactive) | 3.72 µM (inactive) | > 100 µM (inactive) | 2.18 µM (inactive) | 8.2 µM (inactive) | 3.05 µM (inactive) | 2.52 µM (inactive) | 5.01 µM (inactive) | 10 µM (inactive) | 2.75 | 5.75 µM (inactive) | 0.644 µM (active) | 2.63 µM (inactive) | 7.8 µM (inactive) | 4.41 µM (inactive) | 17.1 µM (inactive) | 3.56 µM (inactive)
Nc1[nH]c(=S)[nH]c(=O)c1/N=N/c1c(Br)cc(S(N)(=O)=O)cc1Br | > 100 µM (inactive) | > 100 µM (inactive) | > 100 µM (inactive) | > 100 µM (inactive) | > 100 µM (inactive) | > 100 µM (inactive) | > 100 µM (inactive) | > 100 µM (inactive) | > 100 µM (inactive) | > 100 µM (inactive) | > 100 µM (inactive) | > 100 | > 100 µM (inactive) | > 100 µM (inactive) | > 100 µM (inactive) | > 100 µM (inactive) | > 100 µM (inactive) | > 100 µM (inactive) | > 100 µM (inactive)
Cc1cccc(C2ON=C(c3ccccc3)N2C23CC4CC(CC(C4)C2)C3)c1 (centres undefined) | > 10 µM (inactive) | > 10 µM (inactive) | > 10 µM (inactive) | > 10 µM (inactive) | > 10 µM (inactive) | > 10 µM (inactive) | > 10 µM (inactive) | > 10 µM (inactive) | > 10 µM (inactive) | > 10 µM (inactive) | > 10 µM (inactive) | > 10 | > 10 µM (inactive) | > 10 µM (inactive) | > 10 µM (inactive) | 3.6 µM (inactive) | > 10 µM (inactive) | > 10 µM (inactive) | > 10 µM (inactive)
OC1c2ccccc2CC12Cc1ccccc1C2 (centres undefined) | > 100 µM (inactive) | > 100 µM (inactive) | 24.5 µM (inactive) | 79.4 µM (inactive) | 38.5 µM (inactive) | > 100 µM (inactive) | 90.2 µM (inactive) | > 100 µM (inactive) | > 100 µM (inactive) | 31.2 µM (inactive) | 78.9 µM (inactive) | > 100 | > 100 µM (inactive) | > 100 µM (inactive) | > 100 µM (inactive) | > 100 µM (inactive) | > 100 µM (inactive) | > 100 µM (inactive) | 64 µM (inactive)
O=C(NO)c1ccc(OCc2ccccc2)cc1 | 19.5 µM (inactive) | 14.3 µM (inactive) | 15.3 µM (inactive) | 12.1 µM (inactive) | 14.1 µM (inactive) | 35.1 µM (inactive) | 9.95 µM (inactive) | 47.6 µM (inactive) | 16.9 µM (inactive) | 22.8 µM (inactive) | 43.4 µM (inactive) | 15 | 14.3 µM (inactive) | 24.5 µM (inactive) | 65.3 µM (inactive) | 55.8 µM (inactive) | 26.2 µM (inactive) | 20.7 µM (inactive) | 33.5 µM (inactive)
